The target of experiment [1] is EGFR Del19/C797S (Homo sapiens, UniProt P00533, C797S/DEL746-750). Kind of experiment: Biochemical EGFR kinase inhibition assay (Lance Ultra TR-FRET), double mutant del19/C797S. A digest of the protocol: (§1)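 Step 1: compound in kinase buffer, 0.003–10 μM. Step 2: kinase reaction 1 h at room temperature. Step 4: TR-FRET read at 615/665 nm; IC50 calculated.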
A general note: Time-resolved FRET reads energy transfer from a long-lived donor to a nearby acceptor.

Experiment [2] deals with EGFR L858R/T790M/C797S (Homo sapiens, UniProt P00533, C797S/L858R/T790M). Kind of experiment: Biochemical EGFR kinase inhibition assay (Lance Ultra TR-FRET), triple mutant L858R/T790M/C797S. A digest of the protocol:
as §1

The target of experiment [3] is EGFR L858R/C797S (Homo sapiens, UniProt P00533, C797S/L858R). Kind of experiment: Biochemical EGFR kinase inhibition assay (Lance Ultra TR-FRET), double mutant L858R/C797S. A digest of the protocol:
as §1

Experiment [4] addresses EGFR wildtype (WT) (Homo sapiens, UniProt P00533). In words: Biochemical EGFR kinase inhibition assay (Lance Ultra TR-FRET), wildtype. A digest of the protocol: as §1
The target in experiment [5] is EGFR Del19/T790M/C797S (Homo sapiens, UniProt P00533, C797S/DEL746-750/T790M). Kind of experiment: Biochemical EGFR kinase inhibition assay (Lance Ultra TR-FRET), triple mutant del19/T790M/C797S. The essentials: as §1
Setting [6] is: IC50 Del19/C797S (nM), 100 μM ATP.
The mark [7] stands for this setting: IC50 L858R/T790M/C797S (nM), 100 μM ATP.
[8] abbreviates: IC50 L858R/C797S (nM), 100 μM ATP.
Setting [9] is: IC50 Del19/T790M/C797S (nM), 100 μM ATP.
Setting [10] is: Km ATP, read-out: IC50 Del19/C797S (nM), Km ATP.
Setting [11] is: Km ATP, read-out: IC50 L858R/C797S (nM), Km ATP.
[12] abbreviates: Km ATP, read-out: IC50 WT (nM), Km ATP.
[13] abbreviates: Km ATP, read-out: IC50 Del19/C797S (nM) Km ATP.
The mark [14] stands for this setting: Km ATP, read-out: IC50 L858R/T790M/C797S (nM) Km ATP.
The mark [15] stands for this setting: Km ATP, read-out: IC50 L858R/C797S (nM) Km ATP.
[16] abbreviates: Km ATP, read-out: IC50 WT (nM) Km ATP.
Setting [17] is: Km ATP, read-out: IC50 Del19/T790M/C797S (nM) Km ATP.
[18] abbreviates: Km ATP, read-out: IC50 L858R/T790M/C797S (nM), Km ATP.
Where [19] appears, read: Km ATP, read-out: IC50 Del19/T790M/C797S (nM), Km ATP.
Where [20] appears, read: ATP at Km, read-out: IC50 Del19/C797S (nM), Km ATP.
The mark [21] stands for this setting: ATP at Km, read-out: IC50 L858R/T790M/C797S (nM), Km ATP.
[22] abbreviates: ATP at Km, read-out: IC50 L858R/C797S (nM), Km ATP.
Setting [23] is: ATP at Km, read-out: IC50 WT (nM), Km ATP.
Setting [24] is: ATP at Km, read-out: IC50 Del19/T790M/C797S (nM), Km ATP.

The source of these data is patent US11981658B2, “Substituted aminopyridine compounds as EGFR inhibitors” (YUHAN CORPORATION, priority 2021, dated 2024).

Structures are written as SMILES. Like-named read-outs stand apart in the source and are kept apart here.

EGFR Del19/C797S, sequence (P00533 with tags, fused parts or gaps DEL746-750/C797S): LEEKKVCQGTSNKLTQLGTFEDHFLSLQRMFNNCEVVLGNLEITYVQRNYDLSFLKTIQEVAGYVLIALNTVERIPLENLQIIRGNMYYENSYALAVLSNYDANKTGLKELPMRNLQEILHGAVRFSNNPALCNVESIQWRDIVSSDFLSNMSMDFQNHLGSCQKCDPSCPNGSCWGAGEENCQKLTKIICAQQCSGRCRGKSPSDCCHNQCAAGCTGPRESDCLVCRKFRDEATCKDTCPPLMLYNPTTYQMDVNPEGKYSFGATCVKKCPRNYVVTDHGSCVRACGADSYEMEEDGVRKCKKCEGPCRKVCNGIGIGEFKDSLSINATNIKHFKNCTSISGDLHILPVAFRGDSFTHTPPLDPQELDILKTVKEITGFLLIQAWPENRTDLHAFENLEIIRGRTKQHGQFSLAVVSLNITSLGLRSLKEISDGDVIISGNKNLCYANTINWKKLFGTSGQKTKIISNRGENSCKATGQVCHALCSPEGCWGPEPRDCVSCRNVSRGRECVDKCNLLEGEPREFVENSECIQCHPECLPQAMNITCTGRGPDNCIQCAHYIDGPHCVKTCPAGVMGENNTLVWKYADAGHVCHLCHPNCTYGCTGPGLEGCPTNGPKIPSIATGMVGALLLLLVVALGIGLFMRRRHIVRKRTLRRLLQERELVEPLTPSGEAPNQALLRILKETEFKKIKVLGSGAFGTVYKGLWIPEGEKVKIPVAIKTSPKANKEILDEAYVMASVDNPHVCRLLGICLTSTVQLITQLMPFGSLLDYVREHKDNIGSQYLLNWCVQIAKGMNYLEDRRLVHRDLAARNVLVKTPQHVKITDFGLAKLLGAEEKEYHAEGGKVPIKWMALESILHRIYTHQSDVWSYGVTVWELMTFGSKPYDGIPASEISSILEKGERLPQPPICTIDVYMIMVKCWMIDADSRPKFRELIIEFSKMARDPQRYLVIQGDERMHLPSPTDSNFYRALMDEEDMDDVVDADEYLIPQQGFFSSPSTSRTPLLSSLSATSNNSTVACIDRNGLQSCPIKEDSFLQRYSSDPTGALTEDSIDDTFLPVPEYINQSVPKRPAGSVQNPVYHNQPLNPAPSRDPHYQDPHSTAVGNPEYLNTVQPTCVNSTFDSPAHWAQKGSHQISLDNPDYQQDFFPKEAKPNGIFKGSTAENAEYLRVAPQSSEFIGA
EGFR L858R/C797S, sequence (P00533 25-1210 C797S/L858R): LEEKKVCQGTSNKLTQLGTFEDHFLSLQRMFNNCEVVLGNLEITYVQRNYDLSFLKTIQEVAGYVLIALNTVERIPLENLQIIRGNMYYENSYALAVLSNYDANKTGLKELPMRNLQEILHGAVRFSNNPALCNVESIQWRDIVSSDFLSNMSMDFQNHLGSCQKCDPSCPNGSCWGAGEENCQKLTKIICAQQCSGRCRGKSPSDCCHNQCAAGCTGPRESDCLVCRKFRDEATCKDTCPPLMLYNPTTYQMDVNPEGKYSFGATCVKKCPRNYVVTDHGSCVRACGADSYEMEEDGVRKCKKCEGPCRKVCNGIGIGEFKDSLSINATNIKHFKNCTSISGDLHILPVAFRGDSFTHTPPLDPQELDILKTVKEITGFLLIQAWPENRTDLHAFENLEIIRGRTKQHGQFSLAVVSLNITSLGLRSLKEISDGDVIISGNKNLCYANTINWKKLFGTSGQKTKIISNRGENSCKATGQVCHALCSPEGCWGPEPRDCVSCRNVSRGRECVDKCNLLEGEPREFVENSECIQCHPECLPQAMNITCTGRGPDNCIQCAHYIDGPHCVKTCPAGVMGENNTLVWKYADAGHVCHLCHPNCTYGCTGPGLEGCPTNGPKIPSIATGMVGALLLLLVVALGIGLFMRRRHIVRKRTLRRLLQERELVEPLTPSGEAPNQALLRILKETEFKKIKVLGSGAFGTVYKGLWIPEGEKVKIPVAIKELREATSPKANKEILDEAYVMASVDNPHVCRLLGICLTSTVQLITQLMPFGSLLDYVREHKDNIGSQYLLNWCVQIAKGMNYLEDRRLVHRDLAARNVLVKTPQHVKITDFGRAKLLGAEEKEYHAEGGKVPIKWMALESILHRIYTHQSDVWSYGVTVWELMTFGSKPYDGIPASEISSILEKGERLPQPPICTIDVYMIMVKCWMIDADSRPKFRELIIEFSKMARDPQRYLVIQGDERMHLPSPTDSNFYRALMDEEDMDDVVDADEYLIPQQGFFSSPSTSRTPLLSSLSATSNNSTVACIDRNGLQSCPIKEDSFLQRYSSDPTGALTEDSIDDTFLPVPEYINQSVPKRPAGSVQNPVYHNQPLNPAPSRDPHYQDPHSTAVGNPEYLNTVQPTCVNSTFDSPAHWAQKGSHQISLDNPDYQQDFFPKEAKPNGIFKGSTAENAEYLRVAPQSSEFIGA
EGFR wildtype (WT), sequence (P00533 25-1210): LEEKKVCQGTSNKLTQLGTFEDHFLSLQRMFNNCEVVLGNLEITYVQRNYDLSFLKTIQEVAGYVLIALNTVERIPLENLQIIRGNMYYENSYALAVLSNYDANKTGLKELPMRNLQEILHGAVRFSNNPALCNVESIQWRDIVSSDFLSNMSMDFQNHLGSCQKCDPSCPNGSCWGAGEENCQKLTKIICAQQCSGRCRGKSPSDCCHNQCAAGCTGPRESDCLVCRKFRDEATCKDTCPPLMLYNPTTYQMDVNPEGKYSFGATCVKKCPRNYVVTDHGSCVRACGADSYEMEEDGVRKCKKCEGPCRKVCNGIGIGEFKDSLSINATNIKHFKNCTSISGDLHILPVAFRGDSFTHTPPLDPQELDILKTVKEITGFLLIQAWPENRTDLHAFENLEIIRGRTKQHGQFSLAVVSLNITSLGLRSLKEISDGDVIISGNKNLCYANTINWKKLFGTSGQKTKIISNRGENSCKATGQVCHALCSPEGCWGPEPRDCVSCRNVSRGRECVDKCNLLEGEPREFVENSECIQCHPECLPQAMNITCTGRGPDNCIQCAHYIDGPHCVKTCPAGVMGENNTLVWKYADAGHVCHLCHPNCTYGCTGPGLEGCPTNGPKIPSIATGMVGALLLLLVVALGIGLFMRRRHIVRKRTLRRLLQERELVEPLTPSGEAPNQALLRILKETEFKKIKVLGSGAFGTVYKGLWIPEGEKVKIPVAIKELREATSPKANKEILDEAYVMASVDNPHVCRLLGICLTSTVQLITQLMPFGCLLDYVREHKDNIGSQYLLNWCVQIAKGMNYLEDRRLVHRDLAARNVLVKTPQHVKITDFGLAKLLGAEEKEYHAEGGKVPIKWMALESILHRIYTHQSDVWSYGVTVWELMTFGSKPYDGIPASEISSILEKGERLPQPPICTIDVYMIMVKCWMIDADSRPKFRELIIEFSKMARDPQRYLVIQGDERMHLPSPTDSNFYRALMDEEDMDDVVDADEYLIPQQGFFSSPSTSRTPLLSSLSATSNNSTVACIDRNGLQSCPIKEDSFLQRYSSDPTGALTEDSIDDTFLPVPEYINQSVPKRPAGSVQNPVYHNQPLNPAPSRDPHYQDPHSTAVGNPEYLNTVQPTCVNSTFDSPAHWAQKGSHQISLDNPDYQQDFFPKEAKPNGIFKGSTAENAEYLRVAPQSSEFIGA
EGFR L858R/T790M/C797S, sequence (P00533 25-1210 T790M/C797S/L858R): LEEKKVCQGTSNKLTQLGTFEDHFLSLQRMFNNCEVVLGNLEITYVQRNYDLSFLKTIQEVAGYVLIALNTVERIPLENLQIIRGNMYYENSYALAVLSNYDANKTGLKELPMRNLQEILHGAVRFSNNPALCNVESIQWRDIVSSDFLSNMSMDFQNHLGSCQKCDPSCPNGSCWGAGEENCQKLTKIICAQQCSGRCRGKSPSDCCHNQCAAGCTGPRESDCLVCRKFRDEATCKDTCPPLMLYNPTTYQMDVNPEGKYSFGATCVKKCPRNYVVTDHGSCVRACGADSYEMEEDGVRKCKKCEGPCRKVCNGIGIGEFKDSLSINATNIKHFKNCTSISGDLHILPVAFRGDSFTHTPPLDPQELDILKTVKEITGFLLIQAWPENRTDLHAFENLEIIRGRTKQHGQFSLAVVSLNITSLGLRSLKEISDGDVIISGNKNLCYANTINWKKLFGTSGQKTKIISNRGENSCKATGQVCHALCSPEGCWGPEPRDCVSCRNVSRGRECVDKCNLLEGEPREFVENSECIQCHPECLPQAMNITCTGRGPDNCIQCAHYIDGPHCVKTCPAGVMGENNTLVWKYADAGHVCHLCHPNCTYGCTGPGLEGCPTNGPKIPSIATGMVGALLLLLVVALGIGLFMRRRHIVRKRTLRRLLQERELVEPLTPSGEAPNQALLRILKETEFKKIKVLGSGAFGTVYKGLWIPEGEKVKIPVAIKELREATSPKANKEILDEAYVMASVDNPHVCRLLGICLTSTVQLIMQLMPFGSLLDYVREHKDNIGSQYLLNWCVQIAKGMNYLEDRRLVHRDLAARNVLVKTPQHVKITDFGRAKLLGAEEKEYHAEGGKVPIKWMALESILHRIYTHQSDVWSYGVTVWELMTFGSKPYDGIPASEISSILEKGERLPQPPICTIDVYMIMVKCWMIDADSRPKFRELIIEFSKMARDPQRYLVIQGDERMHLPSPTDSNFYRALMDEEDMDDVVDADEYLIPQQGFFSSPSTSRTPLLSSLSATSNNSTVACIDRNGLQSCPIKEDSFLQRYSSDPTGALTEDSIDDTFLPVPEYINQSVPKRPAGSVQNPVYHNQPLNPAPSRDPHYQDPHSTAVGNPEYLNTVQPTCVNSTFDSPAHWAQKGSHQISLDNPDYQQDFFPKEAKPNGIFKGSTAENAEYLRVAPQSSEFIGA

As for `O=S(=O)(C1CC1)n1cc(-c2nccc(Nc3cc(N4CCC(O)CC4)c(C#Cc4cnn(C5CC5(F)F)c4)cn3)n2)cn1` (stereo not shown) [Example 82, 1-(2-((2-(1-(Cyclopropylsulfonyl)-1H-pyrazol-4-yl)pyrimidin-4-yl)amino)-5-((1-(2,2-difluorocyclopropyl)-1H-pyrazol-4-yl)ethynyl)pyridin-4-yl)piperidin-4-ol], the IC50 in experiment [1] (setting [6]) is 3.5 nM; in experiment [2] (setting [7]) it was 1.8 nM; in experiment [3] (setting [8]), 22.8 nM; in experiment [4] (IC50 WT (nM), 100 μM ATP), more than 10000 nM; in experiment [5] (setting [9]) it was 0.6 nM.
For the compound `CN(C)CC1(C)CCN(c2cc(Nc3ccnc(-c4cnn(S(=O)(=O)C5CC5)c4)n3)ncc2C#CC2(C)CC2)CC1` [Example 406, 2-(1-(Cyclopropylsulfonyl)-1H-pyrazol-4-yl)-N-(4-(4-((dimethylamino)methyl)-4-methylpiperidin-1-yl)-5-((1-methylcyclopropyl)ethynyl)pyridin-2-yl)pyrimidin-4-amine], the IC50 in experiment [1] (setting [6]) is 4.3 nM; in experiment [1] (setting [10]) it was 3.3 nM; in experiment [2] (setting [7]), 1.3 nM; in experiment [3] (setting [8]), 58.2 nM; in experiment [3] (setting [11]), 2.7 nM; in experiment [4] (IC50 WT (nM), 100 μM ATP), more than 10000 nM. For the same compound, the IC50 in experiment [4] (setting [12]) came out at 35.2 nM; in experiment [5] (setting [9]), 0.9 nM.
Regarding `O=S(=O)(C1CC1)n1cc(-c2nccc(Nc3cc(N4CCCC(CO)C4)c(C#Cc4cnn(C5CCOCC5)c4)cn3)n2)cn1` (stereo not shown) [Example 100, (1-(2-((2-(1-(Cyclopropylsulfonyl)-1H-pyrazol-4-yl)pyrimidin-4-yl)amino)-5-((1-(tetrahydro-2H-pyran-4-yl)-1H-pyrazol-4-yl)ethynyl)pyridin-4-yl)piperidin-3-yl)methanol], the IC50 in experiment [1] (setting [6]) amounted to 12.9 nM; in experiment [1] (setting [13]), 10.7 nM; in experiment [2] (setting [7]), 5.6 nM; in experiment [2] (setting [14]), 1.3 nM; in experiment [3] (setting [8]), 73.9 nM; in experiment [3] (setting [15]) it was 7.1 nM. For the same compound, the IC50 in experiment [4] (IC50 WT (nM), 100 μM ATP) is more than 10000 nM; in experiment [4] (setting [16]) it was 62 nM; in experiment [5] (setting [9]), 1.6 nM; in experiment [5] (setting [17]), 1.7 nM.
Consider `CC1(O)CCN(c2cc(Nc3ccnc(-c4cnn(S(=O)(=O)C5CC5)c4)n3)ncc2C#Cc2ccc(C(=O)N3CCC(O)CC3)cc2)CC1` [Example 442, (4-((6-((2-(1-(Cyclopropylsulfonyl)-1H-pyrazol-4-yl)pyrimidin-4-yl)amino)-4-(4-hydroxy-4-methylpiperidin-1-yl)pyridin-3-yl)ethynyl)phenyl)(4-hydroxypiperidin-1-yl)methanone], for which the IC50 in experiment [1] (setting [6]) turned out to be 1.3 nM; in experiment [2] (setting [7]) it was 0.3 nM; in experiment [2] (setting [18]), 0.1 nM; in experiment [3] (setting [8]), 20.3 nM; in experiment [4] (IC50 WT (nM), 100 μM ATP), 9930 nM; in experiment [5] (setting [9]) it was 0.9 nM. The IC50 in experiment [5] (setting [19]) came out at 0.7 nM.
On to `CC1(CO)CCN(c2cc(Nc3ccnc(-c4cnn(S(=O)(=O)C5CC5)c4)n3)ncc2C#Cc2ccc(CN3CCOCC3)cn2)CC1` [Example 185, (1-(2-((2-(1-(Cyclopropylsulfonyl)-1H-pyrazol-4-yl)pyrimidin-4-yl)amino)-5-((5-(morpholinomethyl)pyridin-2-yl)ethynyl)pyridin-4-yl)-4-methylpiperidin-4-yl)methanol], for which the IC50 in experiment [1] (setting [20]) stood at 0.5 nM; in experiment [1] (setting [6]), 0.8 nM; in experiment [2] (setting [21]) it was 0.2 nM; in experiment [2] (setting [7]), 1.1 nM; in experiment [3] (setting [22]) it was 0.9 nM; in experiment [3] (setting [8]) it was 6.8 nM. Moreover, the IC50 is 1.7 nM in experiment [4] (setting [23]); more than 10000 nM in experiment [4] (IC50 WT (nM), 100 μM ATP); 0.4 nM in experiment [5] (setting [24]); 1.2 nM in experiment [5] (setting [9]).
With `C[C@]1(O)CC[C@@H](Nc2cc(Nc3ccnc(-c4cnn(S(=O)(=O)C5CC5)c4)n3)ncc2C#CCN2CCOCC2)CC1` [Example 166, (1s,4s)-4-((2-((2-(1-(Cyclopropylsulfonyl)-1H-pyrazol-4-yl)pyrimidin-4-yl)amino)-5-(3-morpholinoprop-1-yn-1-yl)pyridin-4-yl)amino)-1-methylcyclohexan-1-ol], the IC50 in experiment [1] (setting [20]) was 66.5 nM; in experiment [1] (read-out: IC50 Del19/C797S (nM), 100 μM ATP), 51.1 nM; in experiment [2] (setting [21]), 0.9 nM; in experiment [2] (read-out: IC50 L858R/T790M/C797S (nM), 100 μM ATP), 3.8 nM; in experiment [3] (setting [22]), 21.9 nM; in experiment [3] (read-out: IC50 L858R/C797S (nM), 100 μM ATP) it was 194 nM. In addition, the IC50 in experiment [4] (setting [23]) was 411 nM; in experiment [4] (read-out: IC50 WT (nM), 100 μM ATP), more than 10000 nM; in experiment [5] (setting [24]), 1.4 nM; in experiment [5] (read-out: IC50 Del19/T790M/C797S (nM), 100 μM ATP) it was 1.9 nM.
With `Cn1ncc(C#Cc2cnc(Nc3ccnc(-c4cnn(S(=O)(=O)C5CC5)c4)n3)cc2N2CCC(O)CC2)c1C1CC1` [Example 86, 1-(5-((5-Cyclopropyl-1-methyl-1H-pyrazol-4-yl)ethynyl)-2-((2-(1-(cyclopropylsulfonyl)-1H-pyrazol-4-yl)pyrimidin-4-yl)amino)pyridin-4-yl)piperidin-4-ol], the IC50 in experiment [1] (setting [6]) is 23.9 nM; in experiment [2] (setting [7]), 6.4 nM; in experiment [3] (setting [8]) it was 73.9 nM; in experiment [4] (IC50 WT (nM), 100 μM ATP), more than 10000 nM; in experiment [5] (setting [9]), 1.4 nM.
Take `Cn1cc(C#Cc2cnc(Nc3ccnc(-c4cnn(S(=O)(=O)C5CC5)c4)n3)cc2N2CC(C(C)(C)O)C2)cn1` [Example 35, 2-(1-(2-((2-(1-(Cyclopropylsulfonyl)-1H-pyrazol-4-yl)pyrimidin-4-yl)amino)-5-((1-methyl-1H-pyrazol-4-yl)ethynyl)pyridin-4-yl)azetidin-3-yl)propan-2-ol]: the IC50 in experiment [1] (setting [6]) came out at 27.3 nM; in experiment [1] (setting [13]) it was 28 nM; in experiment [2] (setting [7]) it was 2.4 nM; in experiment [2] (setting [14]), 2.4 nM; in experiment [3] (setting [8]), 53 nM; in experiment [3] (setting [15]), 34.2 nM. In addition, the IC50 in experiment [4] (IC50 WT (nM), 100 μM ATP) is more than 10000 nM; in experiment [4] (setting [16]), 99.6 nM; in experiment [5] (setting [9]) it was 1.9 nM; in experiment [5] (setting [17]), 0.9 nM.
As for `O=S(=O)(C1CC1)n1cc(-c2nccc(Nc3cc(NC4CCC(O)CC4)c(C#CC4(F)CCOC4)cn3)n2)cn1` (stereo not shown) [Example 436, (1s,4s)-4-((2-((2-(1-(Cyclopropylsulfonyl)-1H-pyrazol-4-yl)pyrimidin-4-yl)amino)-5-((3-fluorotetrahydrofuran-3-yl)ethynyl)pyridin-4-yl)amino)cyclohexan-1-ol], the IC50 in experiment [1] (setting [6]) was found to be 3.1 nM; in experiment [1] (setting [10]), 1.7 nM; in experiment [2] (setting [7]), 0.3 nM; in experiment [2] (setting [18]), 0.1 nM; in experiment [3] (setting [8]), 111 nM; in experiment [3] (setting [11]), 2.5 nM. Further, the IC50 is more than 10000 nM in experiment [4] (IC50 WT (nM), 100 μM ATP); 12.5 nM in experiment [4] (setting [12]); 0.2 nM in experiment [5] (setting [9]); 0.1 nM in experiment [5] (setting [19]).
On to `O=S(=O)(C1CC1)n1cc(-c2nccc(Nc3cc(N4[C@@H]5CC[C@H]4C[C@H](CO)C5)c(C#Cc4cnn(C(F)(F)F)c4)cn3)n2)cn1` [Example 332, ((1R,3s,5S)-8-(2-((2-(1-(Cyclopropylsulfonyl)-1H-pyrazol-4-yl)pyrimidin-4-yl)amino)-5-((1-(trifluoromethyl)-1H-pyrazol-4-yl)ethynyl)pyridin-4-yl)-8-azabicyclo[3.2.1]octan-3-yl)methanol], for which the IC50 in experiment [1] (setting [6]) is 1730 nM; in experiment [1] (setting [10]) it was 800 nM; in experiment [2] (setting [7]), 21.6 nM; in experiment [2] (setting [18]), 7.8 nM; in experiment [3] (setting [8]) it was more than 10000 nM; in experiment [3] (setting [11]) it was 845 nM. The IC50 in experiment [4] (IC50 WT (nM), 100 μM ATP) is more than 10000 nM; in experiment [4] (setting [12]), 801 nM; in experiment [5] (setting [9]) it was 23.9 nM; in experiment [5] (setting [19]), 18.9 nM.
